Data on 30 compounds can be found in patent publication US9493432B2, “Cyclopentylbenzamide derivatives and their use for the treatment of psychotic and cognitive disorders” (Takeda Pharmaceutical Company Limited, priority 2013, dated 2016).

Experiment [1] addresses human orexin receptor 1 (Homo sapiens (Human), UniProt O43613). The experiment can be described thus: Orexin antagonist activity, intracellular calcium FLIPR assay (orexin receptor 1). Format: cell-based. The following applies: RBL-2H3 cells stably expressing human orexin receptor 1; Ca2+ dye FLIPR; compound 15 minutes before orexin-A at approximately 80% maximal response; read-out: Human Orexin1R IC50. The method, boiled down: (§1)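 RBL-2H3 cells stably expressing human OX1 or OX2 were loaded with Calcium 5 dye for 1 h at 37 °C. Compounds were added 15 min before orexin-A at a concentration giving ~80% maximal response, and Ca2+ fluorescence was read by FLIPR.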

Experiment [2] deals with human orexin receptor 2 (Homo sapiens (Human), UniProt O43614). The experiment can be described thus: Orexin antagonist activity, intracellular calcium FLIPR assay (orexin receptor 2). It counts as cell-based. The following applies: RBL-2H3 cells stably expressing human orexin receptor 2; Ca2+ dye FLIPR; compound 15 minutes before orexin-A at approximately 80% maximal response; read-out: Human Orexin2R IC50. A digest of the protocol: as §1
Sequence of human orexin receptor 2 (O43614 whole entry): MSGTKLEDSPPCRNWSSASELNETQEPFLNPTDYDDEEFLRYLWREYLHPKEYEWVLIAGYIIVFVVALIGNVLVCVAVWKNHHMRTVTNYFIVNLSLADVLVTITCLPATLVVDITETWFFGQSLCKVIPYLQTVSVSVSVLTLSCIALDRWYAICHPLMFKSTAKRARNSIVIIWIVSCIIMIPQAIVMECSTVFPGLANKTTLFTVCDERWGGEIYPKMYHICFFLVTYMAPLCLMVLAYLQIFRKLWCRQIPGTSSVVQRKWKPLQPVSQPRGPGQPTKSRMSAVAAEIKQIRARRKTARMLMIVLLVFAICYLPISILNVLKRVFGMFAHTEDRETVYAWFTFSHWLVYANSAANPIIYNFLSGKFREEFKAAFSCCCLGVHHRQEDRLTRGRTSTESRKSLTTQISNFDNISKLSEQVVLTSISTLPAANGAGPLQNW
(A change in cytosolic calcium serves as a functional read-out for many receptors and channels.)

Sequence of human orexin receptor 1 (O43613 whole entry): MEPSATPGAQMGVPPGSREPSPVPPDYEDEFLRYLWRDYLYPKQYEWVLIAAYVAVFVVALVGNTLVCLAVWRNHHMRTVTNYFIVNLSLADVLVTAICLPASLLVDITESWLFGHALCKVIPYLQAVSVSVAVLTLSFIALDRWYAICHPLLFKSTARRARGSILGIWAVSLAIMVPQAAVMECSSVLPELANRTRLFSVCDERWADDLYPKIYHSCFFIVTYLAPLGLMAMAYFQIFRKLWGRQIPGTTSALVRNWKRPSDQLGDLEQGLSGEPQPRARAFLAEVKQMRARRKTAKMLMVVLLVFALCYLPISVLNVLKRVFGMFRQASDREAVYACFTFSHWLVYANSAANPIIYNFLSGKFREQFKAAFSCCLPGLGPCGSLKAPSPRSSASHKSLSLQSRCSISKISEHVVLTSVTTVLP

As for `Cc1ccc(-n2nccn2)c(C(=O)NC2CCCC2Cc2cnc3ccccc3n2)c1` (stereo not drawn) [Example 63, 5-Methyl-N-[2-(quinoxalin-2-ylmethyl)cyclopentyl]-2-(2H-1,2,3-triazol-2-yl)benzamide], the figures for the IC50 in experiment [1] and in experiment [2] were 48 nM and 4200 nM, respectively.

Consider `COc1cccc(OC)c1C(=O)N[C@H]1CCC[C@@H]1Nc1nc2ccc(F)cc2o1` [Example 66, N-[(1S,2S)-2-[(6-Fluoro-1,3-benzoxazol-2-yl)amino]cyclopentyl]-2,6-dimethoxybenzamide], for which the IC50 – broadly, the concentration that inhibits the measured activity by half – was 50 nM in experiment [1] and over 10000 nM in experiment [2].

For the compound `COc1ccc(C)cc1C(=O)N[C@H]1CCC[C@@H]1Nc1nc2ccc(F)cc2s1` [Example 67, N-[(1S,2S)-2-[(6-Fluoro-1,3-benzothiazol-2-yl)amino]cyclopentyl]-2-methoxy-5-methylbenzamide], the half-maximal inhibitory concentration (IC50) was found to be 110 nM in experiment [1] and 6500 nM in experiment [2].

Regarding `Cc1cccc(C)c1C(=O)N[C@H]1CCC[C@@H]1Nc1nc2ccc(F)cc2s1` [Example 68, N-[(1S,2S)-2-[(6-Fluoro-1,3-benzothiazol-2-yl)amino]cyclopentyl]-2,6-dimethylbenzamide], the IC50 in experiment [1] is 320 nM; in experiment [2], over 10000 nM.

For the compound `O=C(N[C@H]1CCC[C@@H]1Nc1nc2ccc(F)cc2s1)c1c(F)cccc1-n1nccn1` [Example 69, 2-Fluoro-N-[(1S,2S)-2-[(6-fluoro-1,3-benzothiazol-2-yl)amino]cyclopentyl]-6-(2H-1,2,3-triazol-2-yl)benzamide], the IC50 in experiment [1] amounted to 15 nM; in experiment [2], 3200 nM.

`O=C(N[C@H]1CCC[C@@H]1Nc1nc2ccc(F)cc2s1)c1c(F)cccc1Cl` [Example 70, 2-Chloro-6-fluoro-N-[(1S,2S)-2-[(6-fluoro-1,3-benzothiazol-2-yl)amino]cyclopentyl]benzamide]: the IC50 is 38 nM in experiment [1] and over 10000 nM in experiment [2].

As for `O=C(N[C@H]1CCC[C@@H]1Nc1nc2ccc(F)cc2s1)c1c(Cl)cccc1-n1nccn1` [Example 71, 2-Chloro-N-[(1S,2S)-2-[(6-fluoro-1,3-benzothiazol-2-yl)amino]cyclopentyl]-6-(2H-1,2,3-triazol-2-yl)benzamide], the IC50 turned out to be 24 nM in experiment [1] and 4200 nM in experiment [2].

Turning to `Cc1nnc(-c2ccccc2C(=O)N[C@H]2CCC[C@@H]2Nc2nc3ccc(F)cc3s2)o1` [Example 72, N-[(1S,2S)-2-[(6-Fluoro-1,3-benzothiazol-2-yl)amino]cyclopentyl]-2-(5-methyl-1,3,4-oxadiazol-2-yl)benzamide], the figures for the IC50 in experiment [1] and in experiment [2] were 14 nM and over 10000 nM, respectively.

As for `O=C(N[C@H]1CCC[C@@H]1Nc1nc2ccc(F)cc2s1)c1ccccc1-n1ccnn1` [Example 73, N-[(1S,2S)-2-[(6-Fluoro-1,3-benzothiazol-2-yl)amino]cyclopentyl]-2-(1H-1,2,3-triazol-1-yl)benzamide], the results for the IC50 in experiment [1] and in experiment [2] were 35 nM and over 10000 nM, respectively.

Consider `O=C(N[C@H]1CCC[C@@H]1Nc1nc2ccc(F)cc2s1)c1cc(Cl)ccc1-n1cccn1` [Example 74, 5-Chloro-N-[(1S,2S)-2-[(6-fluoro-1,3-benzothiazol-2-yl)amino]cyclopentyl]-2-(1H-pyrazol-1-yl)benzamide], for which the half-inhibitory concentration (IC50) in experiment [1] was found to be 38 nM; in experiment [2], 2100 nM.

As to `CN(C(=O)c1c(F)cccc1F)[C@H]1CCC[C@@H]1Nc1nc2ccc(F)cc2s1` [Example 76, 2,6-Difluoro-N-[(1S,2S)-2-[(6-fluoro-1,3-benzothiazol-2-yl)amino]cyclopentyl]-N-methylbenzamide], the concentration for half-maximal inhibition (IC50) in experiment [1] amounted to 23 nM; in experiment [2] it was 2500 nM.

On to `COc1ccccc1C(=O)N(C)[C@H]1CCC[C@@H]1Nc1nc2ccc(F)cc2s1` [Example 77, N-[(1S,2S)-2-[(6-Fluoro-1,3-benzothiazol-2-yl)amino]cyclopentyl]-2-methoxy-N-methylbenzamide], for which the IC50 worked out at 25 nM in experiment [1] and 1600 nM in experiment [2].

With `CN(C(=O)c1ccccc1Cl)[C@H]1CCC[C@@H]1Nc1nc2ccc(F)cc2s1` [Example 78, 2-Chloro-N-[(1S,2S)-2-[(6-fluoro-1,3-benzothiazol-2-yl)amino]cyclopentyl]-N-methylbenzamide], the half-maximal inhibitory concentration (IC50) in experiment [1] stood at 20 nM; in experiment [2], 2400 nM.

For the compound `CN(C(=O)c1ccccc1-n1cccn1)[C@H]1CCC[C@@H]1Nc1nc2ccc(F)cc2s1` [Example 79, N-[(1S,2S)-2-[(6-Fluoro-1,3-benzothiazol-2-yl)amino]cyclopentyl]-N-methyl-2-(1H-pyrazol-1-yl)benzamide], the figures for the 50% inhibitory concentration (IC50) in experiment [1] and in experiment [2] were 1 nM and 1100 nM, respectively.

Turning to `CN(C(=O)c1ccccc1-n1nccn1)[C@H]1CCC[C@@H]1Nc1nc2ccc(F)cc2s1` [Example 80, N-[(1S,2S)-2-[(6-Fluoro-1,3-benzothiazol-2-yl)amino]cyclopentyl]-N-methyl-2-(2H-1,2,3-triazol-2-yl)benzamide], the IC50 turned out to be 1 nM in experiment [1] and 650 nM in experiment [2].

As for `CN(C(=O)c1cc(F)ccc1-n1nccn1)[C@H]1CCC[C@@H]1Nc1nc2ccc(F)cc2s1` [Example 81, 5-Fluoro-N-[(1S,2S)-2-[(6-fluoro-1,3-benzothiazol-2-yl)amino]cyclopentyl]-N-methyl-2-(2H-1,2,3-triazol-2-yl)benzamide], the figures for the IC50 in experiment [1] and in experiment [2] were 1 nM and 840 nM, respectively.

As to `Cc1noc(-c2ccccc2C(=O)N(C)[C@H]2CCC[C@@H]2Nc2nc3ccc(F)cc3s2)n1` [Example 83, N-[(1S,2S)-2-[(6-Fluoro-1,3-benzothiazol-2-yl)amino]cyclopentyl]-N-methyl-2-(3-methyl-1,2,4-oxadiazol-5-yl)benzamide], the results for the concentration for half-maximal inhibition (IC50) in experiment [1] and in experiment [2] were 1 nM and 1200 nM, respectively.

With `COc1cccc(OC)c1C(=O)N[C@H]1CCC[C@@H]1Nc1nc2cc(F)ccc2s1` [Example 84, N-[(1S,2S)-2-[(5-Fluoro-1,3-benzothiazol-2-yl)amino]cyclopentyl]-2,6-dimethoxybenzamide], the IC50 was 45 nM in experiment [1] and over 10000 nM in experiment [2].

As for `COc1cccc(OC)c1C(=O)N[C@H]1CCC[C@@H]1Nc1nc2cc(F)ccc2o1` [Example 85, N-[(1S,2S)-2-[(5-Fluoro-1,3-benzoxazol-2-yl)amino]cyclopentyl]-2,6-dimethoxybenzamide], the IC50 was 23 nM in experiment [1] and over 10000 nM in experiment [2].

For `O=C(N[C@H]1CCC[C@@H]1Nc1nc2ccccc2o1)c1ccccc1-n1nccn1` [Example 86, N-[(1S,2S)-2-[(1,3-Benzoxazol-2-yl)amino]cyclopentyl]-2-(2H-1,2,3-triazol-2-yl)benzamide], the IC50 in experiment [1] is 150 nM; in experiment [2] it was over 10000 nM.

With `O=C(N[C@H]1CCC[C@@H]1Nc1nc2ccc(F)cc2o1)c1ccccc1-n1nccn1` [Example 87, N-[(1S,2S)-2-[(6-Fluoro-1,3-benzoxazol-2-yl)amino]cyclopentyl]-2-(2H-1,2,3-triazol-2-yl)benzamide], the IC50 in experiment [1] is 21 nM; in experiment [2] it was over 10000 nM.

As to `O=C(N[C@H]1CCC[C@@H]1Nc1nc2cc(F)ccc2o1)c1ccccc1-n1nccn1` [Example 88, N-[(1S,2S)-2-[(5-Fluoro-1,3-benzoxazol-2-yl)amino]cyclopentyl]-2-(2H-1,2,3-triazol-2-yl)benzamide], the figures for the IC50 in experiment [1] and in experiment [2] were 21 nM and 4200 nM, respectively.

Take `O=C(N[C@H]1CCC[C@@H]1Nc1nc2cc(Cl)ccc2s1)c1ccccc1-n1nccn1` [Example 89, N-[(1S,2S)-2-[(5-Chloro-1,3-benzothiazol-2-yl)amino]cyclopentyl]-2-(2H-1,2,3-triazol-2-yl)benzamide]: the IC50 is 27 nM in experiment [1] and 5400 nM in experiment [2].

With `O=C(N[C@H]1CCC[C@@H]1Nc1nc2ccccc2s1)c1ccccc1-n1nccn1` [Example 90, N-[(1S,2S)-2-[(1,3-Benzothiazol-2-yl)amino]cyclopentyl]-2-(2H-1,2,3-triazol-2-yl)benzamide], the figures for the IC50 in experiment [1] and in experiment [2] were 16 nM and over 10000 nM, respectively.

For the compound `O=C(N[C@H]1CCC[C@@H]1Nc1nc2cc(F)ccc2s1)c1ccccc1-n1nccn1` [Example 92, N-[(1S,2S)-2-[(5-Fluoro-1,3-benzothiazol-2-yl)amino]cyclopentyl]-2-(2H-1,2,3-triazol-2-yl)benzamide], the results for the half-maximal inhibitory concentration (IC50) in experiment [1] and in experiment [2] were 14 nM and 8600 nM, respectively.

`O=C(N[C@H]1CCC[C@@H]1Nc1nc2c(F)cc(F)cc2s1)c1ccccc1-n1nccn1` [Example 93, N-[(1S,2S)-2-[(4,6-Difluoro-1,3-benzothiazol-2-yl)amino]cyclopentyl]-2-(2H-1,2,3-triazol-2-yl)benzamide]: the IC50 in experiment [1] is 14 nM; in experiment [2], 6200 nM.

Regarding `O=C(N[C@H]1CCC[C@@H]1Nc1nc2c(F)cccc2s1)c1ccccc1-n1nccn1` [Example 94, N-[(1S,2S)-2-[(4-Fluoro-1,3-benzothiazol-2-yl)amino]cyclopentyl]-2-(2H-1,2,3-triazol-2-yl)benzamide], the IC50 was 30 nM in experiment [1] and over 10000 nM in experiment [2].

On to `O=C(N[C@H]1CCC[C@@H]1Nc1nc2cccnc2s1)c1ccccc1-n1nccn1` [Example 95, N-[(1S,2S)-2-({[1,3]Thiazolo[5,4-b]pyridin-2-yl}amino)cyclopentyl]-2-(2H-1,2,3-triazol-2-yl)benzamide], for which the results for the half-inhibitory concentration (IC50) in experiment [1] and in experiment [2] were 41 nM and over 10000 nM, respectively.

As to `O=C(N[C@H]1CCC[C@@H]1Nc1nc2c(Cl)cncc2s1)c1ccccc1-n1nccn1` [Example 96, N-[(1S,2S)-2-({7-Chloro-[1,3]thiazolo[5,4-c]pyridin-2-yl}amino)cyclopentyl]-2-(2H-1,2,3-triazol-2-yl)benzamide], the 50% inhibitory concentration (IC50) was 480 nM in experiment [1] and over 10000 nM in experiment [2].

For `COc1cccc(OC)c1C(=O)NC1CCCC1Cc1ccc2ccccc2n1` (stereo not drawn) [Example 98, 2,6-Dimethoxy-N-[2-(quinolin-2-ylmethyl)cyclopentyl]benzamide], the IC50 in experiment [1] worked out at 310 nM; in experiment [2], 2100 nM.
